Test results taken from the supplement of paper PMC10307832.

Tests used:
Experiment in all cases: relative viability (nuclei count vs DMSO), 5 days (fraction); higher = more cells survive
Bortezomib + Linsitinib = compound: CC(C)C[C@H](NC(=O)[C@H](Cc1ccccc1)NC(=O)c1cnccn1)B(O)O [Bortezomib] + C[C@]1(O)C[C@@H](c2nc(-c3ccc4ccc(-c5ccccc5)nc4c3)c3c(N)nccn32)C1 [Linsitinib] (partner 1 µM)
Outline: (§1)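 Cells from lung cancer lines were seeded into 1536-well plates and, one day later, dosed by pin tool. Treatments were either a single drug or a fixed dose of an anchor drug with five library-drug doses (not always all listed) in √10 steps. After 5 days, nuclei were stained in a one-step fixation (final 0.05% Triton X-100, 1% formaldehyde, 1 ug/ml Hoechst) and counted on 4× images, and relative viability is the treated-to-vehicle nuclei ratio, as the median of duplicate plates.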

[1] = compound: CC1=CC(=NN1)NC2=CC(=NC(=N2)/C=C/C3=CC=CC=C3)N4CCN(CC4)C + CS(=O)(=O)N1CCN(Cc2cc3nc(-c4cccc5[nH]ncc45)nc(N4CCOCC4)c3s2)CC1 [Pictilisib] (partner 1 µM)
Outline: as §1

Obatoclax + Navitoclax = compound: COC1=CC(c2cc3ccccc3[nH]2)=N/C1=C\c1[nH]c(C)cc1C [Obatoclax] + CC1(C)CCC(c2ccc(Cl)cc2)=C(CN2CCN(c3ccc(C(=O)NS(=O)(=O)c4ccc(N[C@H](CCN5CCOCC5)CSc5ccccc5)c(S(=O)(=O)C(F)(F)F)c4)cc3)CC2)C1 [Navitoclax] (partner 0.5 µM)
Outline: as §1

Obatoclax + Linsitinib = compound: COC1=CC(c2cc3ccccc3[nH]2)=N/C1=C\c1[nH]c(C)cc1C [Obatoclax] + C[C@]1(O)C[C@@H](c2nc(-c3ccc4ccc(-c5ccccc5)nc4c3)c3c(N)nccn32)C1 [Linsitinib] (partner 1 µM)
Outline: as §1

HCC-15
relative viability (Bortezomib + Linsitinib; first compound 0.0002 µM): 0.815 | relative viability (Bortezomib + Linsitinib; first compound 0.000632 µM): 0.947 | relative viability (Bortezomib + Linsitinib; first compound 0.002 µM): 0.91 | relative viability (Bortezomib + Linsitinib; first compound 0.006325 µM): 0.504 | relative viability (Bortezomib + Linsitinib; first compound 0.02 µM): 0.0972 | relative viability ([1]; first compound 0.08 µM): 0.739 | relative viability ([1]; first compound 0.253 µM): 0.548 | relative viability ([1]; first compound 0.8 µM): 0.667 | relative viability ([1]; first compound 2.53 µM): 0.299 | relative viability ([1]; first compound 8 µM): 0.104 | relative viability (Obatoclax + Navitoclax; first compound 0.01 µM): 0.726 | relative viability (Obatoclax + Navitoclax; first compound 0.03162 µM): 0.726 | relative viability (Obatoclax + Navitoclax; first compound 0.1 µM): 0.645 | relative viability (Obatoclax + Navitoclax; first compound 0.3162 µM): 0.569 | relative viability (Obatoclax + Navitoclax; first compound 1 µM): 0.469 | relative viability (Obatoclax + Linsitinib; first compound 0.01 µM): 0.879 | relative viability (Obatoclax + Linsitinib; first compound 0.03162 µM): 0.708 | relative viability (Obatoclax + Linsitinib; first compound 0.1 µM): 0.845 | relative viability (Obatoclax + Linsitinib; first compound 0.3162 µM): 0.736 | relative viability (Obatoclax + Linsitinib; first compound 1 µM): 0.606

HCC-44
relative viability (Bortezomib + Linsitinib; first compound 0.0002 µM): 0.618 | relative viability (Bortezomib + Linsitinib; first compound 0.000632 µM): 0.61 | relative viability (Bortezomib + Linsitinib; first compound 0.002 µM): 0.515 | relative viability (Bortezomib + Linsitinib; first compound 0.006325 µM): 0.19 | relative viability (Bortezomib + Linsitinib; first compound 0.02 µM): 0.113 | relative viability ([1]; first compound 0.08 µM): 0.606 | relative viability ([1]; first compound 0.253 µM): 0.627 | relative viability ([1]; first compound 0.8 µM): 0.447 | relative viability ([1]; first compound 2.53 µM): 0.34 | relative viability ([1]; first compound 8 µM): 0.245 | relative viability (Obatoclax + Navitoclax; first compound 0.01 µM): 0.923 | relative viability (Obatoclax + Navitoclax; first compound 0.03162 µM): 0.803 | relative viability (Obatoclax + Navitoclax; first compound 0.1 µM): 0.989 | relative viability (Obatoclax + Navitoclax; first compound 0.3162 µM): 0.911 | relative viability (Obatoclax + Navitoclax; first compound 1 µM): 1.05 | relative viability (Obatoclax + Linsitinib; first compound 0.01 µM): 0.688 | relative viability (Obatoclax + Linsitinib; first compound 0.03162 µM): 0.628 | relative viability (Obatoclax + Linsitinib; first compound 0.1 µM): 0.688 | relative viability (Obatoclax + Linsitinib; first compound 0.3162 µM): 0.555 | relative viability (Obatoclax + Linsitinib; first compound 1 µM): 0.63

HCC-78
relative viability (Bortezomib + Linsitinib; first compound 0.0002 µM): 0.509 | relative viability (Bortezomib + Linsitinib; first compound 0.000632 µM): 0.394 | relative viability (Bortezomib + Linsitinib; first compound 0.002 µM): 0.458 | relative viability (Bortezomib + Linsitinib; first compound 0.006325 µM): 0.128 | relative viability (Bortezomib + Linsitinib; first compound 0.02 µM): 0.18 | relative viability ([1]; first compound 0.08 µM): 0.219 | relative viability ([1]; first compound 0.253 µM): 0.216 | relative viability ([1]; first compound 0.8 µM): 0.214 | relative viability ([1]; first compound 2.53 µM): 0.202 | relative viability ([1]; first compound 8 µM): 0.108 | relative viability (Obatoclax + Navitoclax; first compound 0.01 µM): 0.81 | relative viability (Obatoclax + Navitoclax; first compound 0.03162 µM): 0.807 | relative viability (Obatoclax + Navitoclax; first compound 0.3162 µM): 0.575 | relative viability (Obatoclax + Navitoclax; first compound 1 µM): 0.668 | relative viability (Obatoclax + Linsitinib; first compound 0.01 µM): 0.448 | relative viability (Obatoclax + Linsitinib; first compound 0.03162 µM): 0.52 | relative viability (Obatoclax + Linsitinib; first compound 0.3162 µM): 0.283 | relative viability (Obatoclax + Linsitinib; first compound 1 µM): 0.304

HCC-366
relative viability (Bortezomib + Linsitinib; first compound 0.0002 µM): 0.494 | relative viability (Bortezomib + Linsitinib; first compound 0.000632 µM): 0.574 | relative viability (Bortezomib + Linsitinib; first compound 0.002 µM): 0.677 | relative viability (Bortezomib + Linsitinib; first compound 0.006325 µM): 0.51 | relative viability (Bortezomib + Linsitinib; first compound 0.02 µM): 0.0152 | relative viability ([1]; first compound 0.08 µM): 0.148 | relative viability ([1]; first compound 0.253 µM): 0.156 | relative viability ([1]; first compound 0.8 µM): 0.136 | relative viability ([1]; first compound 2.53 µM): 0.112 | relative viability ([1]; first compound 8 µM): 0.0428 | relative viability (Obatoclax + Navitoclax; first compound 0.01 µM): 0.969 | relative viability (Obatoclax + Navitoclax; first compound 0.03162 µM): 1.03 | relative viability (Obatoclax + Navitoclax; first compound 0.1 µM): 1.05 | relative viability (Obatoclax + Navitoclax; first compound 0.3162 µM): 0.988 | relative viability (Obatoclax + Navitoclax; first compound 1 µM): 1.01 | relative viability (Obatoclax + Linsitinib; first compound 0.01 µM): 0.597 | relative viability (Obatoclax + Linsitinib; first compound 0.03162 µM): 0.675 | relative viability (Obatoclax + Linsitinib; first compound 0.1 µM): 0.64 | relative viability (Obatoclax + Linsitinib; first compound 0.3162 µM): 0.454 | relative viability (Obatoclax + Linsitinib; first compound 1 µM): 0.427

HCC-827
relative viability (Bortezomib + Linsitinib; first compound 0.0002 µM): 0.913 | relative viability (Bortezomib + Linsitinib; first compound 0.000632 µM): 0.949 | relative viability (Bortezomib + Linsitinib; first compound 0.002 µM): 0.821 | relative viability (Bortezomib + Linsitinib; first compound 0.006325 µM): 0.896 | relative viability (Bortezomib + Linsitinib; first compound 0.02 µM): 0.141 | relative viability ([1]; first compound 0.08 µM): 0.961 | relative viability ([1]; first compound 0.253 µM): 1.02 | relative viability ([1]; first compound 0.8 µM): 1.07 | relative viability ([1]; first compound 2.53 µM): 0.747 | relative viability ([1]; first compound 8 µM): 0.8 | relative viability (Obatoclax + Navitoclax; first compound 0.01 µM): 0.997 | relative viability (Obatoclax + Navitoclax; first compound 0.03162 µM): 0.99 | relative viability (Obatoclax + Navitoclax; first compound 0.1 µM): 1.06 | relative viability (Obatoclax + Navitoclax; first compound 0.3162 µM): 0.988 | relative viability (Obatoclax + Navitoclax; first compound 1 µM): 1 | relative viability (Obatoclax + Linsitinib; first compound 0.01 µM): 0.904 | relative viability (Obatoclax + Linsitinib; first compound 0.03162 µM): 1.01 | relative viability (Obatoclax + Linsitinib; first compound 0.1 µM): 0.895 | relative viability (Obatoclax + Linsitinib; first compound 0.3162 µM): 0.866 | relative viability (Obatoclax + Linsitinib; first compound 1 µM): 0.914

HOP-62
relative viability (Bortezomib + Linsitinib; first compound 0.0002 µM): 1.04 | relative viability (Bortezomib + Linsitinib; first compound 0.000632 µM): 1.02 | relative viability (Bortezomib + Linsitinib; first compound 0.002 µM): 0.352 | relative viability (Bortezomib + Linsitinib; first compound 0.006325 µM): 0.465 | relative viability (Bortezomib + Linsitinib; first compound 0.02 µM): 0.052 | relative viability ([1]; first compound 0.08 µM): 0.558 | relative viability ([1]; first compound 0.253 µM): 0.458 | relative viability ([1]; first compound 0.8 µM): 0.919 | relative viability ([1]; first compound 2.53 µM): 0.429 | relative viability ([1]; first compound 8 µM): 0.0856 | relative viability (Obatoclax + Navitoclax; first compound 0.01 µM): 1.06 | relative viability (Obatoclax + Navitoclax; first compound 0.03162 µM): 1.01 | relative viability (Obatoclax + Navitoclax; first compound 0.1 µM): 1.01 | relative viability (Obatoclax + Navitoclax; first compound 0.3162 µM): 0.989 | relative viability (Obatoclax + Navitoclax; first compound 1 µM): 0.932 | relative viability (Obatoclax + Linsitinib; first compound 0.01 µM): 0.784 | relative viability (Obatoclax + Linsitinib; first compound 0.03162 µM): 1.07 | relative viability (Obatoclax + Linsitinib; first compound 0.1 µM): 0.94 | relative viability (Obatoclax + Linsitinib; first compound 0.3162 µM): 1.13 | relative viability (Obatoclax + Linsitinib; first compound 1 µM): 0.933

IA-LM
relative viability (Bortezomib + Linsitinib; first compound 0.0002 µM): 0.907 | relative viability (Bortezomib + Linsitinib; first compound 0.000632 µM): 0.682 | relative viability (Bortezomib + Linsitinib; first compound 0.002 µM): 0.577 | relative viability (Bortezomib + Linsitinib; first compound 0.006325 µM): 0.161 | relative viability (Bortezomib + Linsitinib; first compound 0.02 µM): 0.0151 | relative viability ([1]; first compound 0.08 µM): 0.319 | relative viability ([1]; first compound 0.253 µM): 0.505 | relative viability ([1]; first compound 0.8 µM): 0.378 | relative viability ([1]; first compound 2.53 µM): 0.173 | relative viability ([1]; first compound 8 µM): 0.0595 | relative viability (Obatoclax + Navitoclax; first compound 0.01 µM): 0.852 | relative viability (Obatoclax + Navitoclax; first compound 0.03162 µM): 0.855 | relative viability (Obatoclax + Navitoclax; first compound 0.1 µM): 0.666 | relative viability (Obatoclax + Navitoclax; first compound 0.3162 µM): 0.065 | relative viability (Obatoclax + Navitoclax; first compound 1 µM): 0.0608 | relative viability (Obatoclax + Linsitinib; first compound 0.01 µM): 0.457 | relative viability (Obatoclax + Linsitinib; first compound 0.03162 µM): 0.505 | relative viability (Obatoclax + Linsitinib; first compound 0.1 µM): 0.5 | relative viability (Obatoclax + Linsitinib; first compound 0.3162 µM): 0.465 | relative viability (Obatoclax + Linsitinib; first compound 1 µM): 0.0667

LC-2-ad
relative viability (Bortezomib + Linsitinib; first compound 0.0002 µM): 0.798 | relative viability (Bortezomib + Linsitinib; first compound 0.002 µM): 0.811 | relative viability (Bortezomib + Linsitinib; first compound 0.006325 µM): 0.151 | relative viability (Bortezomib + Linsitinib; first compound 0.02 µM): 0.127 | relative viability ([1]; first compound 0.08 µM): 0.46 | relative viability ([1]; first compound 0.253 µM): 0.356 | relative viability ([1]; first compound 0.8 µM): 0.247 | relative viability ([1]; first compound 2.53 µM): 0.0963 | relative viability ([1]; first compound 8 µM): 0.0784 | relative viability (Obatoclax + Navitoclax; first compound 0.01 µM): 0.359 | relative viability (Obatoclax + Navitoclax; first compound 0.03162 µM): 0.446 | relative viability (Obatoclax + Navitoclax; first compound 0.1 µM): 0.311 | relative viability (Obatoclax + Navitoclax; first compound 0.3162 µM): 0.26 | relative viability (Obatoclax + Navitoclax; first compound 1 µM): 0.145 | relative viability (Obatoclax + Linsitinib; first compound 0.01 µM): 0.829 | relative viability (Obatoclax + Linsitinib; first compound 0.03162 µM): 0.828 | relative viability (Obatoclax + Linsitinib; first compound 0.1 µM): 0.906 | relative viability (Obatoclax + Linsitinib; first compound 0.3162 µM): 0.688 | relative viability (Obatoclax + Linsitinib; first compound 1 µM): 0.434
